Data taken from patent US8758743B2, “Compositions containing coenzyme Q10” (Taiyo Kagaku Co., Ltd., priority 2003, dated 2014).
Like-named read-outs stand apart in the source and are kept apart here.

What was measured:
[1] = Bioabsorbability Test 2 of coenzyme Q10 (Test Example 1-4); format: in vivo; conditions: male, SD, rat, plasma, po, 5 mg/kg; for concentration at 1 h: 1 hour after administration; for AUC: read-out: AUC1-24
Procedure: The bioabsorbability of a coenzyme Q10 was evaluated by administering each of the coenzyme Q10-containing composition of Example 1-2 and a coenzyme Q10 itself to a rat as a test sample, sampling blood over time, and measuring the coenzyme Q10 concentration in the plasma, and the bioabsorbability was compared among the test samples.
The feeding conditions were set in 2 ways; a case where rats were allowed to take the feed ad libitum (satiation), and a case where rats were made to fast since the early-evening of the previous day of the test, and where the rats were fed again after blood sampling of 8 hours after the administration of the test sample.
The solution of distilled water in Tests A and A′ was prepared by adding the coenzyme Q10-containing composition of Example 1-2 to distilled water and mixing the mixture. The suspension of a 0.5(w/v)% aqueous CMC—Na solution in Tests B and B′ was prepared by adding a coenzyme Q10 itself to a 0.5(w/v)% aqueous CMC-Na solution and subjecting the mixture to ultrasonication.
The conditions and the like for this test are listed hereinbelow. • Rat: SD line, 7-week old, male, n=4 • Dose: The test samples calculated as 5 mg of a coenzyme Q10 per 1 kg of the body weight of a rat were administered. • Amount of administered liquid: The suspension or the solution used in Tests A, A′, B, or B′ was administered in an amount of 5 mL per 1 kg of the body weight of a rat.
Method of administration, blood sampling, time of blood sampling, processing of blood and method of quantification were same as those in the above-mentioned Test Example 1-3.

[2] = Storage of powder products at 50° C. under light shielding (Test Example 1-1); format: physicochemical
Procedure: In addition, the powder products of Examples 1-6 and 1-7 and a coenzyme Q10 itself (manufactured by Kanegafuchi Kagaku Kogyo Kabushiki Kaisha) were used as test samples, and the storage states before the beginning of storage, and after storage at 50° C. for 4 weeks or 12 weeks passed under light shielding were confirmed.

concentration at 1 h ([1]; fasting): 30 ± 10 ng/mL
concentration at 2 h ([1]; fasting): 30 ± 10 ng/mL
concentration at 4 h ([1]; fasting): 30 ng/mL
concentration at 8 h ([1]; fasting): 30 ± 10 ng/mL
concentration at 24 h ([1]; fasting): 40 ± 110 ng/mL
AUC ([1]; fasting): 780 ± 300 ng·h/mL
concentration at 1 h ([1]; satiation): 120 ± 70 ng/mL
concentration at 2 h ([1]; satiation): 170 ± 110 ng/mL
concentration at 4 h ([1]; satiation): 260 ± 90 ng/mL
concentration at 8 h ([1]; satiation): 270 ± 90 ng/mL
concentration at 24 h ([1]; satiation): 110 ± 40 ng/mL
AUC ([1]; satiation): 4780 ± 1310 ng·h/mL
Storage State ([2]; after 4 weeks): Melted
Storage State ([2]; after 12 weeks): Melted
SMILES: COC1=C(OC)C(=O)C(C/C=C(\C)CC/C=C(\C)CC/C=C(\C)CC/C=C(\C)CC/C=C(\C)CC/C=C(\C)CC/C=C(\C)CC/C=C(\C)CC/C=C(\C)CCC=C(C)C)=C(C)C1=O [Coenzyme Q10 Powder, coenzyme Q10]
